Columns and labels:
[1] = test system: Arabidopsis genes on the microarray; experiment: Agilent single-color global gene expression profiling of Arabidopsis leaf tissue 2 h after spray treatment; format: in vivo, Arabidopsis thaliana (variety Columbia); conditions: for Regulation^a: direction per probe/gene
Protocol: Thirteen Arabidopsis seeds (variety Columbia) were planted in 6 inch pots filled with sandy clay medium. After emergence, pots were thinned to 10 plants per pot. Plants were grown in a greenhouse with a 12 hr light cycle and watered every 24 hours or as needed to maintain stress free conditions. When the Arabidopsis plants reached the vegetative (>BBCH 11<BBCH 30) stage (approx. 2-3 wks from planting), the pots were arranged into a randomized complete block design with 10 plants with 3 replications per treatment. The plants were treated using a standard CO2 sprayer with 20 gal/A carrier volume.
Control: Oil/Adjuvant check (0.035% v/v SILWET adjuvant L-77)
Compound 1: A17492F (MCP) 25 g ai /ha+0.035% SILWET adjuvant
Compound 2: COMPASS fungicide 1x+0.035% SILWET adjuvant
Combination: 1 MCP 25 g/ha+COMPASS fungicide 1x
(§1) Two hours after the spray application, leaves that had received the spray were sampled. For each treatment, two leaves were taken from each of the 10 plants and combined into a 50 ml polypropylene tube. Samples were immediately frozen on dry ice and sent on dry ice overnight to the laboratory for processing.
(§2) A single-color Agilent global gene expression profiling design was used to define differentially expressed genes for treated in reference to untreated Arabidopsis leaf tissues. Three technical array replicates (Agilent Technologies Inc., Santa Clara, Calif.) were hybridized to compare different transcript abundance between leaf tissues treated with Strobilurin and/or 1-MCP in reference to untreated leaf tissues. Arabidopsis slides, Product #G2519F, Design ID 021169 were obtained from Agilent Technologies.
(§3) Samples of 30-50 mg of frozen leaf tissues were resuspended in 450 μL of extraction buffer RLT from the RNeasy Kit for RNA extraction (Qiagen, Valencia, Calif.). Tissues were then ground to a fine powder by adding one 3 mm grinding bead to each frozen sample and grinding for 3 minutes using a GenoGrinder at a rate of 300, 1×. Total RNA was purified following the manufacturer's instructions. Purified total RNA was then quantified and quality controlled using a NanoDrop spectrophotometer and visualized by standard 1% Agarose gel electrophoresis.
(§4) For labeling, a total of 1.0 μg of purified RNA from treated and untreated tissues was reverse transcribed, amplified and labeled with Cy3-CTP following the Agilent (Santa Clara, Calif.) one-color microarray-based gene expression QuickAmp labeling protocol. Since Agilent Arabidopsis microarrays for gene expression (Product #G2519F, Design ID 021169) contain internal spike-in controls a one-color RNA spike-in kit (Agilent, Santa Clara, Calif.) was also labeled according to manufacturer's instructions. Samples were reverse transcribed using MMLV Reverse Transcriptase and amplified using a T7 RNA Polymerase. After amplification cRNA was purified using Qiagen's RNeasy mini spin columns and quantified using a NanoDrop spectrophotometer. Specific activity for Cy3 was determined by the following formula: (Concentration of Cy3)/(Concentration of cRNA)*1000=pmol of Cy3 per μg of cRNA. Samples for hybridization were normalized to 825 ng with a specific activity of >8.0 pmol of Cy3 per μg of cRNA.
Oligo gene expression arrays were hybridized using the Agilent Technologies (Santa Clara, Calif.) Gene Expression Hybridization kit, Wash Buffer kit, Stabilization and Drying Solution following the manufacturer's instructions. Hybridizations were carried out on a fully automated TECAN HS4800 PRO (TECAN U.S., Research Triangle Park, N.C.) hybridization instrument. The hybridization mixture was injected at 65° C. and incubated with agitation for 17 hrs after following a slide pre-hybridization step at 65° C. for 30 seconds. Slides were then washed at 37° C. for 1 minute using the Agilent GE Wash #1 followed by a second wash at 30° C. with Agilent GE Wash #2 for 1 minute and a final drying step using Nitrogen gas for 2 minutes and 30 seconds at 30° C. […]

[2] = test system: maize transcripts (corn genes on the microarray); experiment: Agilent single-color global gene expression profiling of corn leaf tissue 2 h after spray treatment; format: in vivo, Zea maize (corn); conditions: for Regulation: Table 1: corn genes, 1-MCP alone, direction of change per probe/gene
Protocol: Hybrid corn seed (one plant per pot) was planted in 1 quart pots filled with FAFARD 3B™ potting mix (Conrad Fafard, Inc., Agawam, Mass.). Corn was grown in a greenhouse with a 12 hr light cycle and watered every 24 hours or as needed to maintain stress free conditions. When the corn plants reached the V10 growth stage, the pots were arranged into a randomized complete block design with 4 plants with 3 replications per treatment. Corn plants were treated using a standard CO2 sprayer with 20 gal/acre carrier volume.
Treatments were: • Control: Oil/Adjuvant check using 0.035% v/v the organosilicone surfactant SILWET L-77 (Helena Chemical Co., Collierville, Tenn.) • Compound 1: A17492F (MCP) 25 g active ingredient/hectare (ai/ha)+0.035% SILWET surfactant • Compound 2: COMPASS fungicide 1x+0.035% SILWET surfactant • Combination (1 and 2): 1 MCP 25 g/ha+COMPASS fungicide 1x
as §1, with “application, upper” for “application,”, “plant, five, 2 inch pieces of” for “treatment, two”, “taken, cut into small pieces” for “taken from each of the 10 plants”
as §2, with “maize” for “Arabidopsis”, “the COMPASS fungicide” for “Strobilurin”, “tissues.” for “tissues. Arabidopsis slides, Product #G2519F, Design ID 021169 were obtained from Agilent Technologies.”
A Dow AgroSciences custom generated 60-mer comprehensive transcriptome-wide Zea maize oligonucleotide array was used to carry out microarray hybridizations. This array represents more than 58,000 different maize transcripts (Agilent Technologies Inc., Santa Clara, Calif.) obtained from public data sources. Microarray chips were printed using an Agilent format 2×105K, including 10 copies of 100 probes, 2 copies of 44,196 probes 1 copy of 14,355 probes in addition to 1,325 Agilent spike-in controls. The 60-mer unique and specific oligonucleotides were synthesized in-situ using the Sure-Print technology from the manufacturer.
as §3, with “RNeasy™” for “RNeasy”, “GenoGrinder instrument” for “GenoGrinder”, “NanoDrop™” for “NanoDrop”
as §4, with “QuickAmp™” for “QuickAmp”, “Dow AgroSciences-generated Zea maize AGILENT™” for “Agilent Arabidopsis”, “(P/N G4503A,” for “(Product #G2519F,”, “022232)” for “021169)”, “(Concentration of Cy3)/(Concentration of cRNA)*1000=pmol of Cy3 per μg of cRNA. Samples for hybridization were normalized to 825 ng with a specific activity of >8.0 pmol of Cy3 per μg of cRNA.” left out
Oligo gene expression arrays were hybridized using the Agilent Technologies (Santa Clara, Calif.) Gene Expression Hybridization kit, Wash Buffer kit, Stabilization and Drying Solution following the manufacturer's instructions. Hybridizations were carried out on a fully automated TECAN HS4800 PRO™ (TECAN U.S., Research Triangle Park, N.C.). […]

[3] = Arabidopsis leaves, 2 h after spray, ≧5 fold change
[4] = corn leaves, 2 h after spray, ≧2 fold change

Which “overall effect of treatment on gene expression” value ([1]; Arabidopsis) does the source give for `CC1=CC1` [Compound 1-MCP, 1-methylcyclopropene] here?
The value was “reduction in stress-related gene expression”.

And the “genes differentially expressed on the microarray vs untreated” value [1, 3]?
The value was 411 genes.

And the “subset of genes changed uniquely in response to this treatment” value [1, 3]?
The value was 202 genes.

What about the “common genes following treatment with either 1-MCP or COMPASS alone” value ([1]; Arabidopsis, ≧5 fold change) of the same compound?
The value was 165 genes.

What about the “Regulation^a” value ([1]; Table 3: Arabidopsis genes, 1-MCP alone, probe A_84_P20410) of the same compound?
Its value is “up”.

What about the “Regulation^a” value ([1]; Table 3: Arabidopsis genes, 1-MCP alone, probe A_84_P786760) of the same compound?
Its value is “down”.

What about the “Regulation^a” value ([1]; Table 5: common genes, first column pair (a), probe A_84_P13916) of the same compound?
Its value is “down”.

And the “Regulation^a” value ([1]; Table 5: common genes, first column pair (a), probe A_84_P507728)?
Its value is “up”.

And the Regulation ([2]; probe ZmOL3000012)?
The Regulation was “up”.

What about the Regulation ([2]; probe ZmOL3007441) of the same compound?
Its Regulation is “down”.

What about the Regulation ([2]; probe ZmOL3020067) of the same compound?
Its Regulation is “Down”.

And the Regulation ([2]; probe ZmOL3050321_2)?
Its Regulation is “Up”.

What about the “expression of carbonic anhydrase” value ([2]; corn) of the same compound?
The value was “decreased”.

What about the “overall effect of treatment on gene expression” value ([2]; corn) of the same compound?
Its value is “reduction in stress-related gene expression”.

And the “genes differentially expressed on the microarray vs untreated” value [2, 4]?
The value was 934 genes.

What about the “subset of genes changed uniquely in response to this treatment” value [2, 4] of the same compound?
Its value is 362 genes.

What about the “genes involved in translation whose expression changed that were induced” value ([2]; corn, genes unique to the treatment) of the same compound?
Its value is 9 out of 10.

Source: patent publication US20130071853A1, “METHODS FOR IDENTIFYING COMPOSITIONS THAT ALTER WILDTYPE EXPRESSION OF GENES AND PROTEINS IN A PLANT CELL” (Dow Agrosciences LLC, priority 2010, published 2013)
